From patent publication US20250154169A1, “COMPOUNDS AND METHODS FOR MODULATING SPLICING” (REMIX THERAPEUTICS INC., priority 2021, published 2025)
Counter-ions that a name gives are not always drawn. Like-named read-outs stand apart in the source and are kept apart here.

Assays:
Type in all cases: cell-based, human
[1] = system: MYB mRNA; test: Splicing RT-qPCR assay, MYB canonical (CJ) and alternative (AJ) junction mRNA; settings: Homo sapiens
Procedure, shortened: (§1)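 A673 or K562 cells were treated 24 h at 37 °C with an 11-point 3-fold compound dilution series (top 10 uM, DMSO ≤0.25%). Lysates went to one-step RT-qPCR measuring canonical (CJ) and alternative-exon (AJ) junction transcripts, normalized to GAPDH, GUSB or PPIA.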

[2] = system: HTT mRNA; test: Splicing RT-qPCR gene panel, HTT canonical junction (CJ) mRNA; settings: Homo sapiens, Tables 4A/4B, read-out: HTT (IC50, decrease in CJ mRNA, gene panel)
Procedure, shortened: (§2)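 A673 or K562 cells treated 24 h at 37° C. with an 11-point 3-fold dilution series (top 10 uM, ≤0.25% DMSO). Lysates analysed by one-step RT-qPCR for canonical exon-exon junction transcripts, normalized to GAPDH, GUSB or PPIA and DMSO control (2^(−ΔΔCt)), then converted to percentage response.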

[3] = system: HTT mRNA; test: Splicing RT-qPCR assay, HTT canonical (CJ) and alternative (AJ) junction mRNA; settings: Homo sapiens
Procedure, shortened: as §1

[4] = system: Target C mRNA; test: Splicing RT-qPCR gene panel, Target C canonical junction (CJ) mRNA; settings: Homo sapiens, Tables 4A/4B, read-out: Target C (IC50, decrease in CJ mRNA, gene panel)
Procedure, shortened: as §2

[5] = system: SMN2 mRNA; test: Splicing RT-qPCR gene panel, SMN2 canonical junction (CJ) mRNA; settings: Homo sapiens, Tables 4A/4B, read-out: SMN2 (IC50, decrease in CJ mRNA, gene panel)
Procedure, shortened: as §2

[6] = 24 h, A673 or K562 cells, 24 hours compound treatment, RT-qPCR, read-out: MYB AJ (AC50, increase in alternative junction mRNA)
[7] = 24 h, A673 or K562 cells, 24 hours compound treatment, RT-qPCR, read-out: MYB CJ (IC50, decrease in canonical junction mRNA)
[8] = Tables 4A/4B, canonical junction qPCR panel, read-out: MYB (IC50, decrease in CJ mRNA, gene panel)
[9] = 24 h, A673 or K562 cells, 24 hours compound treatment, read-out: HTT CJ (IC50, decrease in canonical junction mRNA)
[10] = A673 or K562 cells, 24 hours compound treatment, read-out: HTT AJ (AC50, increase in alternative junction mRNA)
[11] = Table 3B, canonical junction mRNA, RT-qPCR, read-out: MYB CJ (IC50, decrease in CJ mRNA)
[12] = Table 3B, alternative junction mRNA, RT-qPCR, read-out: MYB AJ (AC50, increase in AJ mRNA)
[13] = Table 3B, alternative junction mRNA, read-out: HTT AJ (AC50, increase in AJ mRNA)
[14] = Table 3B, canonical junction mRNA, read-out: HTT CJ (IC50, decrease in CJ mRNA)

IC50 [1, 7] | IC50 [1, 8] | IC50 [2] | IC50 [3, 9] | IC50 [4] | IC50 [5] | IC50 [1, 11] | IC50 [3, 14] | Structure (SMILES) | AC50 [1, 6] | AC50 [3, 10] | AC50 [1, 12] | AC50 [3, 13]
> 10000 nM | > 10000 nM | > 10000 nM | > 10000 nM | > 10000 nM | 1000 to 10000 nM |  |  | COC1CC(n2cc3c(N4CCNCC4)ccc(C(=O)Nc4cc(F)c5nc(C)cn5c4)c3n2)C1 (centres unmarked) [Compound 424] | > 10000 nM | > 10000 nM |  | 
100 to 1000 nM | 1000 to 10000 nM | > 10000 nM | 1000 to 10000 nM | > 10000 nM | < 100 nM |  |  | CCn1cc2c(C3OCC(C)(N)CO3)ccc(C(=O)Nc3cc(F)c4nc(C)cn4c3)c2n1 (centres unmarked) [Compound 454, 4-(5-amino-5-methyl-1,3-dioxan-2-yl)-2-ethyl-N-{8-fluoro-2-methylimidazo[1,2-a]pyridin-6-yl}indazole-7-carboxamide] | 1000 to 10000 nM | 1000 to 10000 nM |  | 
100 to 1000 nM | 100 to 1000 nM | 1000 to 10000 nM | 1000 to 10000 nM | > 10000 nM | < 100 nM |  |  | CCNC1CCN(c2ccc(C(=O)Nc3cc(F)c4nc(C)cn4c3)c3nn(CCOC)cc23)CC1 [Compound 307, 4-[4-(ethylamino)piperidin-1-yl]-N-{8-fluoro-2-methylimidazo[1,2-a]pyridin-6-yl}-2-(2-methoxyethyl) indazole-7-carboxamide] | 100 to 1000 nM | 1000 to 10000 nM |  | 
 | < 100 nM | 1000 to 10000 nM |  | 1000 to 10000 nM | < 100 nM | < 100 nM | 1000 to 10000 nM | CCn1cc2c(N3CCC(N)(CC)CC3)ncc(C(=O)Nc3cc(F)c4nc(C)cn4c3)c2n1 [Compound 969] |  |  | < 100 nM | > 10000 nM
 | < 100 nM | 100 to 1000 nM |  | > 10000 nM | < 100 nM | < 100 nM | 100 to 1000 nM | CCn1cc2c(N3CCNCC3)ncc(C(=O)Nc3cc(F)c4nc(C)cn4c3)c2n1 [Compound 950] |  |  | 100 to 1000 nM | 100 to 1000 nM
< 100 nM | < 100 nM | 100 to 1000 nM | 100 to 1000 nM | 1000 to 10000 nM | < 100 nM |  |  | Cc1cn2cc(NC(=O)c3ccc(N4CC5(CN(C)C5)C4)c4cn(C)nc34)cc(F)c2n1 [Compound 243] | < 100 nM | 100 to 1000 nM |  | 
< 100 nM | < 100 nM | 100 to 1000 nM | 100 to 1000 nM | 1000 to 10000 nM | < 100 nM |  |  | Cc1cn2cc(NC(=O)c3ccc(N4CC5(CNC5)C4)c4cn(C)nc34)cc(F)c2n1 [Compound 242] | 100 to 1000 nM | 1000 to 10000 nM |  | 
100 to 1000 nM | 100 to 1000 nM | > 10000 nM | > 10000 nM | > 10000 nM | < 100 nM |  |  | Cc1cn2cc(NC(=O)c3ccc(N4CCNCC4)c4cn(Cc5cn(C)nn5)nc34)cc(F)c2n1 [Compound 368, N-{8-fluoro-2-methylimidazo[1,2-a]pyridin-6-yl}-2-[(1-methyl-1,2,3-triazol-4-yl)methyl]-4-(piperazin-1-yl) indazole-7-carboxamide; trifluoroacetic acid] | 100 to 1000 nM | > 10000 nM |  | 
< 100 nM | < 100 nM | 1000 to 10000 nM | 1000 to 10000 nM | 1000 to 10000 nM | < 100 nM |  |  | CCNC1CCN(c2ccc(C(=O)Nc3cc(F)c4nc(C)cn4c3)c3nn(CC)cc23)CC1 [Compound 380, 2-ethyl-4-[4-(ethylamino)piperidin-1-yl]-N-{8-fluoro-2-methylimidazo[1,2-a]pyridin-6-yl}indazole-7-carboxamide] | < 100 nM | 1000 to 10000 nM |  | 

Second part, the compound before the results:

Structure (SMILES) | IC50 [1, 7] | IC50 [1, 8] | IC50 [2] | IC50 [3, 9] | IC50 [4] | IC50 [5] | IC50 [1, 11] | IC50 [3, 14] | AC50 [1, 6] | AC50 [3, 10] | AC50 [1, 12] | AC50 [3, 13]
CN[C@H]1CCN(c2ccc(C(=O)Nc3cn4cc(C)nc4c(N(C)C)n3)c3nn(C)cc23)C1 [Compound 426] | > 10000 nM | > 10000 nM | > 10000 nM | > 10000 nM | > 10000 nM | > 10000 nM |  |  | > 10000 nM | > 10000 nM |  | 
CC1=NC2C=C(NC(=O)c3ccc(N(C)C4CCN(C)CC4)c4cn(C)nc34)C=C(F)C2=N1 (centres unmarked) [Compound 245] | 100 to 1000 nM | 100 to 1000 nM | 100 to 1000 nM | 100 to 1000 nM | 100 to 1000 nM | < 100 nM |  |  | 100 to 1000 nM | 100 to 1000 nM |  | 
COc1c(NC(=O)c2ccc(N3CCNCC3)c3cn(C)nc23)cc2cn(C)nc2c1C [Compound 344, N-(6-methoxy-2,7-dimethylindazol-5-yl)-2-methyl-4-(piperazin-1-yl) indazole-7-carboxamide trifluoroacetate] | 1000 to 10000 nM | 1000 to 10000 nM | > 10000 nM | > 10000 nM | > 10000 nM | 100 to 1000 nM |  |  | 1000 to 10000 nM | > 10000 nM |  | 
Cc1cn2cc(NC(=O)c3ccc(N4CC[C@@H](NC5CC5)C4)c4nc(C)nn34)cc(F)c2n1 [Compound 958] |  | < 100 nM | 100 to 1000 nM |  | > 10000 nM | < 100 nM | < 100 nM | 100 to 1000 nM |  |  | < 100 nM | 1000 to 10000 nM
Cc1cn2cc(NC(=O)c3ccc(N4CCNCC4)c4cn(C)nc34)nc2c(C)n1 [Compound 273] | 100 to 1000 nM | 100 to 1000 nM | > 10000 nM | > 10000 nM | > 10000 nM | < 100 nM |  |  | 100 to 1000 nM | > 10000 nM |  | 
CNC1CCN(c2ccc(C(=O)Nc3cn4cc(C)nc4c(OC)n3)c3nn(CCOC)cc23)C1 (centres unmarked) [Compound 418, N-{8-methoxy-2-methylimidazo[1,2-a]pyrazin-6-yl}-2-(2-methoxyethyl)-4-[3-(methylamino)pyrrolidin-1-yl]indazole-7-carboxamide] | 100 to 1000 nM | 100 to 1000 nM | > 10000 nM | > 10000 nM | > 10000 nM | < 100 nM |  |  | 1000 to 10000 nM | > 10000 nM |  | 
COc1nc(NC(=O)c2ccc(N3CCNCC3)c3cn(C)nc23)cn2cc(C)nc12 [Compound 323] | < 100 nM | < 100 nM | < 100 nM | < 100 nM | 1000 to 10000 nM | < 100 nM |  |  | < 100 nM | 100 to 1000 nM |  | 
Cc1cn2cc(NC(=O)c3ccc(N(C)C4CC(C)(C)NC(C)(C)C4)c4cn(C)nc34)cc(F)c2n1 [Compound 244] | > 10000 nM | > 10000 nM | > 10000 nM | > 10000 nM | > 10000 nM | 100 to 1000 nM |  |  | > 10000 nM | > 10000 nM |  | 
Cc1cn2cc(NC(=O)c3ccc(C4CC(C)(C)NC(C)(C)C4)c4cn(C)nc34)cc(F)c2n1 [Compound 212] | 100 to 1000 nM | 100 to 1000 nM | 1000 to 10000 nM | 1000 to 10000 nM | > 10000 nM | 100 to 1000 nM |  |  | 1000 to 10000 nM | > 10000 nM |  | 
CN[C@H]1CCN(c2ccc(C(=O)Nc3cn4cc(C)nc4c(OC)n3)c3nn(CCOC)cc23)C1 [Compound 432, (S)—N-(8-methoxy-2-methylimidazo[1,2-a]pyrazin-6-yl)-2-(2-methoxyethyl)-4-(3-(methylamino)pyrrolidin-1-yl)-2H-indazole-7-carboxamide] | < 100 nM | 100 to 1000 nM | > 10000 nM | > 10000 nM | > 10000 nM | < 100 nM |  |  | < 100 nM | > 10000 nM |  | 
CNC1CCN(c2ccc(C(=O)Nc3cn4cc(C)nc4c(N(C)C)n3)c3nn(C)cc23)C1 (centres unmarked) [Compound 419, N-[8-(dimethylamino)-2-methylimidazo[1,2-a]pyrazin-6-yl]-2-methyl-4-[3-(methylamino)pyrrolidin-1-yl]indazole-7-carboxamide] | > 10000 nM | > 10000 nM | > 10000 nM | > 10000 nM | > 10000 nM | > 10000 nM |  |  | > 10000 nM | > 10000 nM |  | 
Cc1cn2cc(NC(=O)c3cc(C)c(N4CCNCC4)c4cn(C)nc34)cc(F)c2n1 [Compound 300] | 1000 to 10000 nM | 1000 to 10000 nM | > 10000 nM | > 10000 nM | > 10000 nM | 100 to 1000 nM |  |  | 100 to 1000 nM | > 10000 nM |  | 
Cc1cn2cc(NC(=O)c3c(F)cc(N4CC[C@@H](NC5CCC5)C4)c4csnc34)cc(F)c2n1 [Compound 976] |  | < 100 nM | 100 to 1000 nM |  | 1000 to 10000 nM | < 100 nM | < 100 nM | 100 to 1000 nM |  |  | < 100 nM | 1000 to 10000 nM
